In experiment [1] the target is T1, E-selectin (Homo sapiens) (UniProt P16581).
T1 sequence (whole entry): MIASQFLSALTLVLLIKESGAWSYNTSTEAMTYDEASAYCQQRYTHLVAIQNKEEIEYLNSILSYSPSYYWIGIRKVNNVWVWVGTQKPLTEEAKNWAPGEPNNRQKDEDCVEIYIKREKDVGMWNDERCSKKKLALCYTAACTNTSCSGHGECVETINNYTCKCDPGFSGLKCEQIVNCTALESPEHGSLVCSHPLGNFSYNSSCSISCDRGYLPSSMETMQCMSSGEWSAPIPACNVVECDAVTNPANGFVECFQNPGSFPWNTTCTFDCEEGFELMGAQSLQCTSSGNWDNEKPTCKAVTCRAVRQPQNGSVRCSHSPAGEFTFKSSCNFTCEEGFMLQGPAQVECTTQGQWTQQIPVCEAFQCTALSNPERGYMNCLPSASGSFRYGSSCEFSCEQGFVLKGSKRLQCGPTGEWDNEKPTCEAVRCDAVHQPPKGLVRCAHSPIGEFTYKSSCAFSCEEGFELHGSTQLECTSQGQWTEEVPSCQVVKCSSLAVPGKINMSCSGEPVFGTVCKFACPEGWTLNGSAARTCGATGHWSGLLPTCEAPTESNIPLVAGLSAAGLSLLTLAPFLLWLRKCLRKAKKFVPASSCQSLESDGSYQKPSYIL
Put plainly: Compound was evaluated for in vitro affinity towards Selectin E, activity expressed as IC50 relative to Sialyl lewisX.

Experiment [2] addresses T1, E-selectin (Homo sapiens). Description: Compound was evaluated for in vitro affinity towards Selectin E.

The text below walks through data of ChEMBL document CHEMBL1130576, “Design and synthesis of a macrocyclic E-Selectin antagonist” (Bioorg Med Chem Lett, 1997).

As to `O=C1CC[C@@H]2O[C@@H](O[C@@H]3CCCC[C@H]3O[C@@H]3O[C@@H](CO)[C@H](O)[C@H](O[C@@H](Cc4ccccc4)C(=O)O)[C@H]3O1)[C@@H](O)[C@@H](O)[C@@H]2O`, in experiment [1], the RIC50 came out at 2.8. In experiment [1], `O=C(O)CC[C@@H]1O[C@@H](O[C@@H]2CCCC[C@H]2O[C@@H]2O[C@@H](CO)[C@H](O)[C@H](O[C@@H](Cc3ccccc3)C(=O)O)[C@@H]2O)[C@@H](O)[C@@H](O)[C@@H]1O` displayed an RIC50 of 0.39.

As to `COC(=O)CCCCCCCCO[C@@H]1O[C@@H](CO)[C@@H](O[C@@H]2O[C@@H](CO)[C@H](O)[C@H](O[C@]3(C(=O)O)C[C@@H](O)[C@@H](NC(C)=O)[C@H]([C@H](O)[C@H](O)CO)O3)[C@@H]2O)[C@H](O[C@@H]2O[C@@H](C)[C@@H](O)[C@H](O)[C@@H]2O)[C@@H]1NC(C)=O`, the RIC50 in experiment [2] was determined as 1.
